The values that follow are results of earlier work, collected in US10172912B2, “Chemical induction of lactation in prepubescent non-human mammals” (priority 2009, dated 2019).

One data set deals with gravid horses. Particulars: for udder development: gravid equine mares with endophyte-infected ryegrass toxicity, thirty days before foaling.
The test system of another data set is non-pregnant mares. Particulars: altrenogest/estradiol pessary week 1, estradiol pessary week 2 with twice daily drug.

As to `CCN1CCCC1CNC(=O)c1cc(S(N)(=O)=O)ccc1OC` (centres unmarked) [sulpiride], the udder development result in the data set with gravid horses is listed as “increases udder development”. Moreover, the induced lactation volume in the data set on non-pregnant mares is listed as approximately 1 liter per mare/day.

For `O=c1[nH]c2ccccc2n1CCCN1CCC(n2c(=O)[nH]c3cc(Cl)ccc32)CC1` [Domperidone], the udder development entry in the data set on gravid horses is given as “increases udder development”. Besides, the lactation entry with gravid horses (gravid horses with endophyte-infected ryegrass toxicity, administration for at least eighteen days) is “increase lactation”. The “bound to plasma proteins” value in the data set on plasma proteins is 91-93%.
